Test results as given in EP0414533A1, “Use of iodopropargyl esters of alpha-amino acid derivatives as antimicrobial agents” (ROHM AND HAAS COMPANY, priority 1989, dated 1991).
Where two headings read alike, the source gives them in different places.

Assays:
[1] = system: Pythium ultimum (PYU); assay: In-vitro plant fungicide test; type: cell-based; conditions: Globisporangium ultimum; 25 ppm; Table IVa; read-out: % Control at 25 ppm PYU
[2] = system: Xanthomonas campestris (XAN); assay: In-vitro plant fungicide test; type: cell-based; conditions: Xanthomonas campestris; 25 ppm; Table IVa; read-out: % Control at 25 ppm XAN
[3] = system: Escherichia coli (ECOL); assay: Minimum inhibitory concentration (MIC), broth two-fold serial dilution test; conditions: Escherichia coli, IIIB, read-out: MIC (G-) ECOL, trypticase soy broth (complex media); Table IIIb
[4] = system: MIXED COOLING TOWER ALGAE; assay: MIC test against mixed cooling tower algae; type: cell-based, green algae and blue-green bacteria; conditions: Table VIII
Procedure: The algae culture contains green algae and blue-green bacteria, and is obtained from a cooling tower in Spring House, Pennsylvania. The algae culture is grown in Allen's medium on a rotary shaker under flourescent room lighting. This culture is further diluted with Allen's medium and then added to the test vessel.

[5] = system: Cochliobolus sativus (HEL); assay: In-vitro plant fungicide test; type: cell-based; conditions: Bipolaris sorokiniana, 25 ppm; Table IVa; *=Phytotoxic; read-out: % Control at 25 ppm HEL
[6] = system: Staphylococcus aureus (SAUR); assay: Minimum inhibitory concentration (MIC), broth two-fold serial dilution test; conditions: Staphylococcus aureus, IIIB, read-out: MIC (G+) SAUR, trypticase soy broth (complex media); Table IIIb
[7] = system: THREE FUNGI; assay: MIC test against three fungi in Mycophile Broth, pH 5.0, read after 8 days (Table VII); type: cell-based; conditions: 192 h, serial dilutions from 50 ppm, read after 8 days of incubation
[8] = system: 8 FUNGI; assay: Microbicides secondary test against 8 fungi on Mycophile Agar at pH 5.0 (Table VI); type: cell-based; design: key: 1= no growth; 0= growth of the indicated fungi at dose indicated in ppm; conditions: for ANIG growth: Aspergillus niger; for APUL growth: Aureobasidium pullulans; for CGLO growth: Chaetomium globosum; for CRES growth: Cladosporium resinae; for GTRA growth: Gloeophyllum trabeum; for PFUN growth: Penicillium funiculosum; for RRUB growth: Rhodotorula rubra; for SSER growth: Sacharomyces cerevisiae
Excerpt: The results of the minimum inhibitory concentration (MIC) tests of compounds of this invention are shown in Tables IIIa IIIb, IIIc, V, VI, VII, and VIII against the microorganisms shown in Table IX.

[9] = system: Aspergillus niger (ANIG); assay: Minimum inhibitory concentration (MIC), broth two-fold serial dilution test; type: cell-based; conditions: Aspergillus niger, IIIB, trypticase soy broth (complex media); Table IIIb; read-out: MIC (F) ANIG
[10] = system: Rhizoctonia solani (RHI); assay: In-vitro plant fungicide test; type: cell-based; conditions: Rhizoctonia solani; 25 ppm; Table IVa; read-out: % Control at 25 ppm RHI
[11] = system: Septoria nodorum (SEP); assay: In-vitro plant fungicide test; type: cell-based; conditions: Parastagonospora nodorum, 25 ppm; Table IVa; read-out: % Control at 25 ppm SEP
[12] = system: Pseudomonas aerugenosa (PSAE); assay: Minimum inhibitory concentration (MIC), broth two-fold serial dilution test; conditions: Pseudomonas, IIIB, read-out: MIC (G-) PSAE, trypticase soy broth (complex media); Table IIIb

O=C(CNC(=O)c1ccccc1)OCC#CI [Compound 29, N-benzoylglycine iodopropargyl ester]
0%: inhibition of growth at 25 ppm [2]
1: ANIG growth ([8]; 1.0 PPM) | ANIG growth ([8]; 2.5 PPM) | ANIG growth ([8]; 25 PPM) | APUL growth ([8]; 25 PPM) | CGLO growth ([8]; 25 PPM) | CRES growth ([8]; 25 PPM) | GTRA growth ([8]; 1.0 PPM) | GTRA growth ([8]; 2.5 PPM) | GTRA growth ([8]; 25 PPM) | PFUN growth ([8]; 2.5 PPM) | PFUN growth ([8]; 25 PPM) | RRUB growth ([8]; 25 PPM) | SSER growth ([8]; 25 PPM)
0: ANIG growth ([8]; 0.2 PPM) | APUL growth ([8]; 0.2 PPM) | APUL growth ([8]; 1.0 PPM) | APUL growth ([8]; 2.5 PPM) | CGLO growth ([8]; 0.2 PPM) | CGLO growth ([8]; 1.0 PPM) | CGLO growth ([8]; 2.5 PPM) | CRES growth ([8]; 0.2 PPM) | CRES growth ([8]; 1.0 PPM) | CRES growth ([8]; 2.5 PPM) | GTRA growth ([8]; 0.2 PPM) | PFUN growth ([8]; 0.2 PPM) | PFUN growth ([8]; 1.0 PPM) | RRUB growth ([8]; 0.2 PPM) | RRUB growth ([8]; 1.0 PPM) | RRUB growth ([8]; 2.5 PPM) | SSER growth ([8]; 0.2 PPM) | SSER growth ([8]; 1.0 PPM) | SSER growth ([8]; 2.5 PPM)
100%: inhibition of growth at 25 ppm [1] | inhibition of growth at 25 ppm [5] | inhibition of growth at 25 ppm [10] | inhibition of growth at 25 ppm [11]
1.6 µg/mL: MIC ([7]; Aspergillus niger, read-out: MIC ANIG)
6.2 µg/mL: MIC [4]
3.2 µg/mL: MIC ([7]; Gloeophyllum trabeum, read-out: MIC GTRA)
12.5 µg/mL: MIC ([7]; Aureobasidium pullulans, read-out: MIC APUL)
125 µg/mL: MIC [3] | MIC [12]
32 µg/mL: MIC [6]
0.5 µg/mL: MIC [9]
